Molecules are shown by their SMILES.

The data set concerns lung adenocarcinoma. Briefly: Case reports of patients treated with gefitinib or erlotinib.

For `C#Cc1cccc(Nc2ncnc3cc(OCCOC)c(OCCOC)cc23)c1` [erlotinib], the “CT scan response of bilateral nodules” value (patient 2, 150 mg daily, 4 mo after treatment) is “markedly reduced in number and size”. The “adverse effect leading to dose decrease” value (patient 2, after 14 mo of therapy, dose decreased to 100 mg daily) is listed as “fatigue”. Moreover, the disease outcome (patient 2, after 25 mo of treatment) is given as “the disease progressed within the lung”.

For `COc1cc2ncnc(Nc3ccc(F)c(Cl)c3)c2cc1OCCCN1CCOCC1` [gefitinib], the chest radiograph response entry (patient 1, 250 mg daily, 2 wk after start) is listed as “dramatic improvement”. In addition, the chest radiograph outcome (patient 1, nine mo later) is “progression of disease”. In addition, under “patient 3, after three mo”, the “disease outcome on adjuvant treatment” value is on record as “developed a new left-sided malignant pleural effusion”.

The record behind these values is US8067175B2, “Methods and compositions for detecting a drug resistant EGFR mutant” (priority 2005, dated 2011).
